Test results from publication PMC9171646 (Proceedings of the National Academy of Sciences of the …, 2022).
“Also recorded” adds a separate entry of the source.

Assays:
[1] = system: EF-G-bound translocating 70S ribosome; experiment: Presteady-state smFRET imaging of translocation; assay type: biochemical, E. coli; settings: for Final state after prolonged stalling: 400 ms time resolution, extended imaging (Fig. S4A); for Effect on translocation: EF-G(GTP) delivered with 10 µM drug to PRE ribosomes, 25 °C; for Affinity for ribosome-bound EF-G vs EF-G in solution: inferred from smFRET with EF-G in excess
[2] = system: EF-G-ribosome translocation intermediate (INT2); experiment: Presteady-state cryo-EM structure of EF-G-ArgB-INT2 translocation intermediate; assay type: binding, E. coli
[3] = system: E. coli EF-G-70S ribosome; experiment: Cryo-EM structure of EF-G-ArgB-70S complex; assay type: binding
P. aeruginosa EF-G1 = settings: cited from earlier work
Pseudomonas aeruginosa = settings: cited from earlier work
[4] = system: EF-G from P. aeruginosa (EF-G1); settings: free P. aeruginosa EF-G1; cited from earlier work
EF-G = settings: cited from earlier work
EF-G(GDP)-ribosome INT2 = settings: cited from earlier work
eEF2 = settings: cited from earlier work

Row | Molecule | Final state after prolonged stalling [1] | Inhibition of ribosomes with EF-G in excess ([1]; EF-G in fivefold excess over ArgB (10 µM ArgB, 50 µM EF-G)) | Effect on translocation [1] | Affinity for ribosome-bound EF-G vs EF-G in solution [1] | Affinity for ribosome-bound EF-G vs EF-G in solution ([1]; listed as Argyrin B) | Binding site on EF-G in translocation intermediate ([2]; 10 µM ArgB, 5 µM EF-G, 1 mM GTP) | Contacts of ArgB in EF-G binding pocket ([2]; EF-G-ArgB-INT2, E. coli numbering) | Binding site on EF-G ([3]; 50 µM ArgB, 0.4 µM 70S, 1 µM EF-G, 500 µM GTP) | State in which EF-G is trapped ([3]; nucleotide density compatible with GDP, switch-I disordered) | Resistance by mutation of Pro414 (P. aeruginosa EF-G1; ArgB-resistant strains) | Resistance by Thr671Ala (E. coli Thr668) (P. aeruginosa EF-G1; P. aeruginosa EF-G1 domain V) | Antimicrobial activity against P. aeruginosa (Pseudomonas aeruginosa) | Direct binding to EF-G1, binding site [4] | Resistance by EF-G mutations (EF-G) | Binding site on EF-G (EF-G(GDP)-ribosome INT2) | Binding site on eEF2 (eEF2)
1 | argyrin B [ArgB] | eventually reached an EF-G-bound drug-stalled POST state after prolonged stalling | all ribosomes were inhibited | prolonged stalls during late steps of translocation | preferentially binds with high affinity to EF-G when it is bound to the ribosome; also recorded: lower affinity for EF-G in solution than on the ribosome | low affinity toward EF-G off the ribosome, but high affinity to EF-G bound to the ribosome | in the junction between EF-G domains III and V | van der Waals interactions with Met617, Leu660, and Met682 within domain V of EF-G and the backbone amide of Ala489 of EF-G was positioned within hydrogen bonding distance to the Sarcosine moiety | between domain III and V of EF-G | traps EF-G on the ribosome after GTP hydrolysis and Pi release | commonly mutated in ArgB-resistant strains | resistance to ArgB | at the forefront | bind directly to EF-G from P. aeruginosa (EF-G1) with the binding site located between domains III and V |  |  | 
2 | CC(=O)O[C@H]1C[C@@]2(C)[C@@H](C[C@@H](O)[C@H]3[C@@]4(C)CC[C@@H](O)[C@@H](C)[C@@H]4CC[C@@]32C)/C1=C(\CCC=C(C)C)C(=O)O [FA, fusidic acid, reference compound] | eventually reached an EF-G-bound drug-stalled POST state after prolonged stalling |  | prolonged stalls during late steps of translocation |  |  |  |  |  |  |  |  |  |  | mutations in EF-G have been reported to confer FA resistance | between domains I and III | 
3 | CO[C@H]1[C@@H](O)[C@H](O)[C@H](OC[C@@]23C[C@@H]4[C@H](C)CC[C@H]4[C@@]4(C=O)CC2C=C(C(C)C)[C@@]34C(=O)O)O[C@@H]1C [Sordarin] |  |  |  |  |  |  |  |  |  |  |  |  |  |  |  | binds between domains III and V of eEF2
